Test results: publication doi:10.64898/2025.12.07.692800v1 (biorxiv, 2025)

What was measured:
[1] = molecular target: T1, LAG-3-His (recombinant human LAG-3; discussed as LAG-3 D1) (Homo sapiens, UniProt P18627); experiment: MST; type: binding
T1 sequence (P18627 23-450 limits assumed): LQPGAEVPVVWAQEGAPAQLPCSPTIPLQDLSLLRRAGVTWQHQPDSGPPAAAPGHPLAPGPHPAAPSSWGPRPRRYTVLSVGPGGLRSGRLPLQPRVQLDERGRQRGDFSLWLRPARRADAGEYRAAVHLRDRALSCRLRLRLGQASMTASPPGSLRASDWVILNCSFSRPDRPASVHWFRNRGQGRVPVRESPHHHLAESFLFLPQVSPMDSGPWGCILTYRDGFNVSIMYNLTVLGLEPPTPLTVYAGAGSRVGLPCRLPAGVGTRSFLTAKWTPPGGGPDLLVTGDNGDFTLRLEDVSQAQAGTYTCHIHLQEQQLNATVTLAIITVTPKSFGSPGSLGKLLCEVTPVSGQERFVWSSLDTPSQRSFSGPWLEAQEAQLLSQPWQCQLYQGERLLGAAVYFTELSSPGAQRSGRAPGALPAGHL

[2] = molecular target: T2, LAG-3 / MHCII (Revvity HTRF Human LAG-3 / MHCII Binding Kit) (Homo sapiens, UniProt P18627); experiment: HTRF
T2 sequence (P18627 23-450 limits assumed): T1 sequence (P18627 23-450 limits assumed)

Kd [1]: 59.2 µM
EC50 [2]: 42.9 µM
SMILES: N#Cc1ccnnc1N1CCCC(c2c[nH]c3ncccc23)C1 (centres unmarked) [N05]
